According to patent US20210206817A1, “Metabolically Stable Apelin Analogs in the Treatment of Disease Mediated by the Apelin Receptor” (priority 2014, published 2021):
Like-named read-outs stand apart in the source and are kept apart here. Where a SMILES comes first, the peptide text is derived from it.

How the values were obtained:
[1] = molecular target: T1, rat apelin receptor-EGFP (Rattus norvegicus, UniProt Q9JHG3); assay: [125I]pE13F radioligand binding on CHO membrane preparations
T1 construct: expressed in transfected cells
T1 sequence (Q9JHG3 1-377): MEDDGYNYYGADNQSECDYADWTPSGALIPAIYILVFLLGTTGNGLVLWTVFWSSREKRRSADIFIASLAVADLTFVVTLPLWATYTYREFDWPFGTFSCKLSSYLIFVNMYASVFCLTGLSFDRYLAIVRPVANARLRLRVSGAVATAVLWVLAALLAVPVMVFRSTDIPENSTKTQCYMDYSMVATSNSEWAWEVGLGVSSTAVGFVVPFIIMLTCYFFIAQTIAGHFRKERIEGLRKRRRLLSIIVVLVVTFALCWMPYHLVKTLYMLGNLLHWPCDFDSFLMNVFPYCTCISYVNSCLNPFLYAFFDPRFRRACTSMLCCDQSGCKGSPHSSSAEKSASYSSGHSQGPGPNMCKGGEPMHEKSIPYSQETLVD
Protocol: Crude membrane preparation from CHO stably expressing the wild-type rat apelin receptor-EGFP, were prepared as previously described (39). […] The reaction was stopped by adding ice-cold binding buffer and filtered through glass microfiber filters (Whatman GF/C filters). Radioactivity was counted in Wizard 1470 Wallac gamma counter (Perkin Elmer, Turku, Finland).

[2] = molecular target: T1, rat apelin receptor-EGFP; assay: Apelin receptor-EGFP internalization, confocal microscopy; format: cell-based; conditions: 1 μM, 20 min
Protocol: The internalization assay was performed as described previously with CHO cells stably expressing the rat apelin receptor-EGFP (43). […] Cells were then mounted in Aquapolymount (Polysciences, Warrington, Pa., USA) for confocal microscopic analysis (Sec (42) for details).

[3] = molecular target: T1, rat apelin receptor-EGFP; assay: Inhibition of forskolin-induced cAMP production (HTRF); format: cell-based
[4] = in vitro; conditions: mouse, plasma, 4 h
Protocol: For each compound, the stock solution (100 μM in water) was diluted in plasma to a final incubation concentration of 5 μM. The incubation at 37° C. was stopped respectively at to and 4 h by adding one volume of ice cold acetonitrile containing 0.1% trifluoroacetic acid. The sample was vortexed for 1 min and then centrifuged at 4° C. before LC-MS injection of the supernatant. Analyses were performed on a Kinetex RP-C18 column (2.6 μm, 100 Å, 50×4.6 mm) using a linear gradient (solvent B in solvent A, solvent A: water/0.05% TFA; solvent B: acetonitrile; flow rate of 2 mL·min^−1: detection at 358 nm). The percentage of remaining test compound relative to t0 was measured by monitoring the peak area of the chromatogram.

[5] = tested on: rat aortic rings precontracted by noradrenaline (NA); assay: Isometric tension of aortic rings precontracted by noradrenaline; conditions: precontraction 3×10^−6 M NA
Protocol: The experiments were performed in rat aortic rings as previously described (39). […] The aortas were cleaned of excess connective tissue and fat and cut into rings of approximately 3-4 mm in length. Special care was taken to avoid damaging the luminal surface of the endothelium. […] One end of the aortic ring was connected to a tissue holder and the other to an isometric force transducer (EMKA Technologies, Paris, France). […] During equilibration period, the rings were washed every 30 min. Then, a first relaxation to acetylcholine (Ach, 10^−4 mol/L) was implemented to check the integrity or the absence of the endothelium in rings precontracted with NA (3×10^−8 mol/L). After rinsing with PSS to baseline tension, rings were equilibrated for 90 min. […] Each concentration of the drug was added at the maximal effect of the precedent concentration. The concentration-response curves were continuously recorded on a PC by means of IOX v 2.4 (EMKA Technologies, Paris) for further analysis (Datanalyst v2.1, EMKA Technologies, Paris).

[6] = competition with [125I]pE13F, CHO membranes, read-out: Ki for the apelin receptor (affinity)
[7] = 10^−6 M forskolin, read-out: IC50 inhibition of forskolin-induced cAMP production
[8] = Table 3, read-out: Ki nM ± SEM (15.11.2013)
[9] = Table 3, read-out: IC50 cAMP inhibition

Row | Structure (SMILES) | Ki [1, 6] [nM] | induction of apelin receptor internalization [2] | IC50 [3, 7] [nM] | Ki [1, 8] [nM] | IC50 [3, 9] [nM] | also measured
1 | CSCC[C@H](NC(=O)[C@@H]1CCCN1C(=O)CNC(=O)[C@H](CCCCN)NC(=O)[C@H](Cc1c[nH]cn1)NC(=O)[C@H](CO)NC(=O)[C@H](CC(C)C)NC(=O)[C@H](CCCNC(=N)N)NC(=O)[C@@H]1CCCN1C(=O)[C@H](CCCNC(=N)N)NC(C)=O)C(=O)N1CCC[C@H]1C(=O)N[C@@H](Cc1ccccc1)C(=O)O [Ac—R12F] | 1.4 ± 0.7 | potent inducers of apelin receptor internalization | 2.4 ± 1.4 |  |  | 
2 | CCCCCCCCCCCCCCCC(=O)N[C@@H](CCCCN)C(=O)N[C@@H](Cc1ccccc1)C(=O)N[C@@H](CCCNC(=N)N)C(=O)N[C@@H](CCCNC(=N)N)C(=O)N[C@@H](CCC(N)=O)C(=O)N[C@@H](CCCNC(=N)N)C(=O)N1CCC[C@H]1C(=O)N[C@@H](CCCNC(=N)N)C(=O)N[C@@H](CC(C)C)C(=O)N[C@@H](CO)C(=O)N[C@@H](Cc1c[nH]cn1)C(=O)N[C@@H](CCCCN)C(=O)NCC(=O)N1CCC[C@H]1C(=O)N[C@@H](CCSC)C(=O)N1CCC[C@H]1C(=O)N[C@@H](Cc1ccccc1)C(=O)O [JFM V-0196A] |  |  |  |  |  | starting peptide remaining after 4 h [4]: 100% of star-ring peptide after 4 h; Ki ([1]; [125I]pE13F binding I (nM), Table 2): 0.76 ± 0.13 nM; IC50 ([3]; Table 2, read-out: cAMP production IC50): 3.9 ± 1.5 nM
3 | CSCC[C@H](NC(=O)[C@@H]1CCCN1C(=O)CNC(=O)[C@H](CCCCN)NC(=O)[C@H](Cc1c[nH]cn1)NC(=O)[C@H](CO)NC(=O)[C@H](CC(C)C)NC(=O)[C@H](CCCNC(=N)N)NC(=O)[C@@H]1CCCN1C(=O)[C@H](CCCNC(=N)N)NC(=O)[C@H](CCC(N)=O)NC(=O)[C@H](CCCNC(=N)N)NC(=O)[C@H](CCCNC(=N)N)NC(=O)[C@H](Cc1ccccc1)NC(=O)[C@H](CCCCN)NC(=O)[C@@H](N)CCCCNC(=O)CCC(F)(F)C(F)(F)C(F)(F)C(F)(F)C(F)(F)C(F)(F)C(F)(F)C(F)(F)F)C(=O)N1CCC[C@H]1C(=O)N[C@@H](Cc1ccccc1)C(=O)O [JFM V-0210/1] |  |  |  | 0.18 ± 0.023 | 3.8 ± 1 | 
4 | CCCCCCCCCCCCCCCC(=O)NCCCC[C@H](N)C(=O)N[C@@H](CCCCN)C(=O)N[C@@H](Cc1ccccc1)C(=O)N[C@@H](CCCNC(=N)N)C(=O)N[C@@H](CCCNC(=N)N)C(=O)N[C@@H](CCC(N)=O)C(=O)N[C@@H](CCCNC(=N)N)C(=O)N1CCC[C@H]1C(=O)N[C@@H](CCCNC(=N)N)C(=O)N[C@@H](CC(C)C)C(=O)N[C@@H](CO)C(=O)N[C@@H](Cc1c[nH]cn1)C(=O)N[C@@H](CCCCN)C(=O)NCC(=O)N1CCC[C@H]1C(=O)N[C@@H](CCSC)C(=O)N1CCC[C@H]1C(=O)N[C@@H](Cc1ccccc1)C(=O)O [JFM V-0210/2] |  |  |  | 1.33 ± 0.15 | 1.4 ± 0.5 | 
5 | CCCCCCCCCCCCCCCC(=O)NCCCC[C@H](N)C(=O)N[C@@H](Cc1ccccc1)C(=O)N[C@@H](CCCNC(=N)N)C(=O)N[C@@H](CCCNC(=N)N)C(=O)N[C@@H](CCC(N)=O)C(=O)N[C@@H](CCCNC(=N)N)C(=O)N1CCC[C@H]1C(=O)N[C@@H](CCCNC(=N)N)C(=O)N[C@@H](CC(C)C)C(=O)N[C@@H](CO)C(=O)N[C@@H](Cc1c[nH]cn1)C(=O)N[C@@H](CCCCN)C(=O)NCC(=O)N1CCC[C@H]1C(=O)N[C@@H](CCSC)C(=O)N1CCC[C@H]1C(=O)N[C@@H](Cc1ccccc1)C(=O)O [JFM V-0220A] |  |  |  | 1.43 ± 0.74 | 2 ± 0.75 | 
6 | CSCC[C@H](NC(=O)[C@@H]1CCCN1C(=O)CNC(=O)[C@H](CCCCN)NC(=O)[C@H](Cc1c[nH]cn1)NC(=O)[C@H](CO)NC(=O)[C@H](CC(C)C)NC(=O)[C@H](CCCNC(=N)N)NC(=O)[C@@H]1CCCN1C(=O)[C@H](CCCNC(=N)N)NC(=O)[C@H](CCC(N)=O)NC(=O)[C@H](CCCNC(=N)N)NC(=O)[C@H](CCCNC(=N)N)NC(=O)[C@H](Cc1ccccc1)NC(=O)[C@@H](N)CCCCNC(=O)CCC(F)(F)C(F)(F)C(F)(F)C(F)(F)C(F)(F)C(F)(F)C(F)(F)C(F)(F)F)C(=O)N1CCC[C@H]1C(=O)N[C@@H](Cc1ccccc1)C(=O)O [JFM V-0220B] | 0.2 |  |  | 0.16 ± 0.01 | 1 ± 0.4 | 
7 | CCCC[C@H](NC(=O)[C@@H]1CCCN1C(=O)[C@@H](C)NC(=O)[C@H](CCCCN)NC(=O)C(C)(C)NC(=O)[C@H](CO)NC(=O)[C@@H](CC(C)C)NC(=O)[C@H](CCCNC(=N)N)NC(=O)[C@@H]1CCCN1C(=O)[C@H](CCCNC(=N)N)NC(=O)[C@@H](CCC(N)=O)NC(=O)[C@H](CCCNC(=N)N)NC(=O)[C@H](CCCNC(=N)N)NC(=O)[C@H](Cc1ccccc1)NC(=O)[C@H](CCCCN)NC(C)=O)C(=O)N1CCC[C@H]1C(=O)N[C@@H](Cc1ccc(Br)cc1)C(=O)O [P95, N-Acetyl-Lys-Phe-Arg-Arg-D-Gln-Arg-Pro-Arg-D-Leu-Ser-Aib-Lys-D-Ala-Pro-Nle-Pro-(4-Br)Phe] (HELM PEPTIDE1{[ac].K.F.R.R.[dQ].R.P.R.[dL].S.[Aib].K.[dA].P.[Nle].P.[O=C(O)[C@H](Cc1ccc(Br)cc1)N[*:1]]}$$$$V2.0; C-terminus assumed) | 0.03 |  |  |  |  | affinity improved as compared to K17F by a factor [1]: 10; IC50 ([1]; Table 1): 0.03 ± 0.02 nM; IC50 ([3]; Table 1, read-out: cAMP production IC50): 0.34 ± 0.36 nM
8 | CSCC[C@H](NC(=O)[C@@H]1CCCN1C(=O)CNC(=O)[C@H](CCCCN)NC(=O)[C@H](Cc1c[nH]cn1)NC(=O)[C@H](CO)NC(=O)[C@H](CC(C)C)NC(=O)[C@H](CCCNC(=N)N)NC(=O)[C@@H]1CCCN1C(=O)[C@H](CCCNC(=N)N)NC(=O)[C@@H]1CCC(=O)N1)C(=O)N1CCC[C@H]1C(=O)N[C@@H](Cc1ccc(Br)cc1)C(=O)O [pE13(4Br-Phe^13)] | 0.06 ± 0.02 | potent inducers of apelin receptor internalization | 0.1 ± 0.05 |  |  | 
9 | CSCC[C@H](NC(=O)[C@@H]1CCCN1C(=O)CNC(=O)[C@H](CCCCN)NC(=O)C(C)(C)NC(=O)[C@H](CO)NC(=O)[C@H](CC(C)C)NC(=O)[C@H](CCCNC(=N)N)NC(=O)[C@@H]1CCCN1C(=O)[C@H](CCCNC(=N)N)NC(=O)[C@@H]1CCC(=O)N1)C(=O)N1CCC[C@H]1C(=O)N[C@@H](Cc1ccccc1)C(=O)O [pE13F(Aib^7)] (HELM PEPTIDE1{[Glp].R.P.R.L.S.[Aib].K.G.P.M.P.F}$$$$V2.0; C-terminus assumed) | 2.6 ± 2.3 | potent inducers of apelin receptor internalization | 1.2 ± 0.6 |  |  | 
10 | CSCC[C@H](NC(=O)[C@@H]1CCCN1C(=O)[C@@H](C)NC(=O)[C@H](CCCCN)NC(=O)[C@H](Cc1c[nH]cn1)NC(=O)[C@H](CO)NC(=O)[C@H](CC(C)C)NC(=O)[C@H](CCCNC(=N)N)NC(=O)[C@@H]1CCCN1C(=O)[C@H](CCCNC(=N)N)NC(=O)[C@@H]1CCC(=O)N1)C(=O)N1CCC[C@H]1C(=O)N[C@@H](Cc1ccccc1)C(=O)O [pE13F(D-Ala^9)] (HELM PEPTIDE1{[Glp].R.P.R.L.S.H.K.[dA].P.M.P.F}$$$$V2.0; C-terminus assumed) | 4.3 ± 1.8 | potent inducers of apelin receptor internalization | 43 ± 12 |  |  | 
11 | CCCC[C@H](NC(=O)[C@@H]1CCCN1C(=O)CNC(=O)[C@H](CCCCN)NC(=O)[C@H](Cc1c[nH]cn1)NC(=O)[C@H](CO)NC(=O)[C@H](CC(C)C)NC(=O)[C@H](CCCNC(=N)N)NC(=O)[C@@H]1CCCN1C(=O)[C@H](CCCNC(=N)N)NC(=O)[C@@H]1CCC(=O)N1)C(=O)N1CCC[C@H]1C(=O)N[C@@H](Cc1ccccc1)C(=O)O [pE13F(Nle^11)] |  | potent inducers of apelin receptor internalization |  |  |  | 
12 | CSCC[C@H](NC(=O)[C@@H]1CCCN1C(=O)CNC(=O)[C@H](CCCCN)NC(=O)[C@H](Cc1c[nH]cn1)NC(=O)[C@H](CO)NC(=O)[C@H](CC(C)C)NC(=O)[C@H](CCCNC(=N)N)NC(=O)[C@@H]1CCCN1C(=O)[C@H](CCCNC(=N)N)NC(=O)[C@@H]1CCC(=O)N1)C(=O)N1CCC[C@H]1C(=O)N[C@@H](Cc1ccccc1)C(=O)O [pE13F, reference compound] |  |  |  |  |  | maximal relaxant effect [5]: 62±6%; potency (pD2) of relaxation [5]: 8.00±0.59
